One may read the GI50 as the concentration at which growth is held to half of that of the control.

Common to all, as to format: cell-based
The test system of one experiment is TCCS cells. Put plainly: human CML cell proliferation inhibition. The conditions noted are these: 72 hours, Cell Counting Kit-8. The gist of the method:
(§1)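 Seed 1×10^4 cells/well; add compound, 9 concentrations by 5-fold dilution, final 0–10 μM, or DMSO; incubate 72 h, 37 °C, CO2; add CCK-8 for 2 h; read A450; normalise to vehicle; fit GI50.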
A general note: Tetrazolium dyes change colour on reduction, which living cells bring about.

For another experiment, the system named is KOPM28 cells. The experiment can be described thus: human CML cell proliferation inhibition. The conditions noted are these: 72 hours, Cell Counting Kit-8. The gist of the method: as §1
A further experiment relates to T315I-TCCS cells. The experiment can be described thus: human CML cell proliferation inhibition. Particulars: 72 hours, Cell Counting Kit-8. The gist of the method:
as §1

For the next experiment, the system named is T315I-KOPM28 cells. Put plainly: human CML cell proliferation inhibition. The conditions noted are these: 72 hours, Cell Counting Kit-8. Summed up:
as §1

For another experiment, the system named is T315I-Bcr-Abl (Ba/F3). Put plainly: Ba/F3 cell proliferation inhibition. Particulars: BaF3; 72 hours, Cell Counting Kit-8. The gist of the method: (§2)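 GI50 derived from CCK-8 absorbance at 450 nm (2 h development), expressed relative to DMSO vehicle. Cells (parental or T315I-Bcr-Abl Ba/F3, 1×10^4/well) received nine threefold-diluted concentrations, final 0 to 10 μM, for 72 h at 37 °C.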

Another experiment has as its system Parental (Ba/F3). The experiment can be described thus: Ba/F3 cell proliferation inhibition. Particulars: BaF3; 72 hours, Cell Counting Kit-8. The gist of the method:
as §2

Regarding `Cc1cc(F)c(C(=O)Nc2ccc(CN3CCCN(C)CC3)c(C(F)(F)F)c2)cc1C#Cc1cnc2c(Nc3cnn(C)c3)cccn12` [Example 61, 2-fluoro-4-methyl-N-(4-((4-methyl-1,4-diazepan-1-yl)methyl)-3-(trifluoromethyl)phenyl)-5-((8-((1-methyl-1H-pyrazol-4-yl)amino)imidazo[1,2-a]pyridin-3-yl)ethynyl)benzamide], the GI50 with TCCS cells is less than 10 nM; in the experiment with KOPM28 cells, less than 10 nM; in the experiment with T315I-TCCS cells, 100 nM; with T315I-KOPM28 cells, less than 10 nM; with T315I-Bcr-Abl (Ba/F3), less than 50 nM; in the experiment on Parental (Ba/F3), 500 to 5000 nM.
As to `Cc1cc(F)c(C(=O)Nc2ccc(CN3CC(OC(C)C)C3)c(C(F)(F)F)c2)cc1C#Cc1cnc2c(Nc3cnn(C)c3)cccn12` [Example 62, 2-fluoro-N-(4-((3-isopropoxyazetidin-1-yl)methyl)-3-(trifluoromethyl)phenyl)-4-methyl-5-((8-((1-methyl-1H-pyrazol-4-yl)amino)imidazo[1,2-a]pyridin-3-yl)ethynyl)benzamide], the GI50 with TCCS cells is less than 10 nM; in the experiment with KOPM28 cells, less than 10 nM; with T315I-TCCS cells it was more than 100 nM; in the experiment on T315I-KOPM28 cells, more than 100 nM; with T315I-Bcr-Abl (Ba/F3), 500 to 5000 nM; in the experiment with Parental (Ba/F3), more than 5000 nM.
On to `Cc1cc(F)c(C(=O)Nc2cc(CN3CC(OC(C)C)C3)cc(C(F)(F)F)c2)cc1C#Cc1cnc2c(Nc3cnn(C)c3)cccn12` [Example 72, 2-fluoro-N-(3-((3-isopropoxyazetidin-1-yl)methyl)-5-(trifluoromethyl)phenyl)-4-methyl-5-((8-((1-methyl-1H-pyrazol-4-yl)amino)imidazo[1,2-a]pyridin-3-yl)ethynyl)benzamide], for which the GI50 in the experiment on TCCS cells was less than 10 nM; in the experiment with KOPM28 cells, less than 10 nM; in the experiment with T315I-TCCS cells, more than 100 nM; in the experiment with T315I-KOPM28 cells it was more than 100 nM; with T315I-Bcr-Abl (Ba/F3), 50 to 500 nM; in the experiment with Parental (Ba/F3), more than 5000 nM.
In the case of `Cc1cc(F)c(C(=O)Nc2cc(-c3cccnc3)cc(C(C)(C)C#N)c2)cc1C#Cc1cnc2c(Nc3cn[nH]c3)cccn12` [Example 79, 5-((8-((1H-pyrazol-4-yl)amino)imidazo[1,2-a]pyridin-3-yl)ethynyl)-N-(3-(2-cyanopropan-2-yl)-5-(pyridin-3-yl)phenyl)-2-fluoro-4-methylbenzamide], the GI50 with TCCS cells is less than 10 nM; with KOPM28 cells it was less than 10 nM; in the experiment on T315I-TCCS cells, 100 nM; with T315I-KOPM28 cells it was more than 100 nM; in the experiment on T315I-Bcr-Abl (Ba/F3) it was 50 to 500 nM; in the experiment on Parental (Ba/F3), more than 5000 nM.
Regarding `Cc1cc(F)c(C(=O)Nc2cc(N3CCC(N4CCN(C)CC4)CC3)cc(C(C)(C)C#N)c2)cc1C#Cc1cnc2c(Nc3cnn(C)c3)cccn12` [Example 25, N-(3-(2-cyanopropan-2-yl)-5-(4-(4-methylpiperazin-1-yl)piperidin-1-yl)phenyl)-2-fluoro-4-methyl-5-((8-((1-methyl-1H-pyrazol-4-yl)amino)imidazo[1,2-a]pyridin-3-yl)ethynyl)benzamide], the GI50 is less than 10 nM in the experiment with TCCS cells; less than 10 nM in the experiment on KOPM28 cells; more than 100 nM in the experiment on T315I-TCCS cells; 100 nM with T315I-KOPM28 cells; 50 to 500 nM with T315I-Bcr-Abl (Ba/F3); 500 to 5000 nM in the experiment on Parental (Ba/F3).
On to `Cc1cc(F)c(C(=O)Nc2cc(N(C)CCN(C)C)cc(C(C)(C)C#N)c2)cc1C#Cc1cnc2c(Nc3cnn(C)c3)cccn12` [Example 22, N-(3-(2-cyanopropan-2-yl)-5-((2-(dimethylamino)ethyl)(methyl)amino)phenyl)-2-fluoro-4-methyl-5-((8-((1-methyl-1H-pyrazol-4-yl)amino)imidazo[1,2-a]pyridin-3-yl)ethynyl)benzamide], for which the GI50 with TCCS cells was less than 10 nM; in the experiment with KOPM28 cells, less than 10 nM; in the experiment on T315I-TCCS cells, 100 nM; in the experiment on T315I-KOPM28 cells it was 100 nM; with T315I-Bcr-Abl (Ba/F3), 50 to 500 nM; with Parental (Ba/F3) it was 500 to 5000 nM.
Regarding `Cc1cc(F)c(C(=O)Nc2cc(CN3CCC(N(C)C)C3)cc(C(F)(F)F)c2)cc1C#Cc1cnc2c(Nc3cn[nH]c3)cccn12` (stereo not drawn) [Example 105, 5-((8-((1H-pyrazol-4-yl)amino)imidazo[1,2-a]pyridin-3-yl)ethynyl)-N-(3-((3-(dimethylamino)pyrrolidin-1-yl)methyl)-5-(trifluoromethyl)phenyl)-2-fluoro-4-methylbenzamide], the GI50 is less than 10 nM with TCCS cells; less than 10 nM with KOPM28 cells; less than 10 nM in the experiment on T315I-TCCS cells; 100 nM in the experiment with T315I-KOPM28 cells; less than 50 nM with T315I-Bcr-Abl (Ba/F3); 500 to 5000 nM with Parental (Ba/F3).
Take `Cc1cc(F)c(C(=O)Nc2ccc(CN3CCOCC3)c(C(C)(C)C#N)c2)cc1C#Cc1cnc2c(Nc3cnn(C)c3)cccn12` [Example 40, N-(3-(2-cyanopropan-2-yl)-4-(morpholinomethyl)phenyl)-2-fluoro-4-methyl-5-((8-((1-methyl-1H-pyrazol-4-yl)amino)imidazo[1,2-a]pyridin-3-yl)ethynyl)benzamide]: the GI50 in the experiment on TCCS cells was less than 10 nM; with KOPM28 cells, less than 10 nM; in the experiment with T315I-TCCS cells, more than 100 nM; in the experiment with T315I-KOPM28 cells, more than 100 nM; in the experiment on T315I-Bcr-Abl (Ba/F3) it was 50 to 500 nM; in the experiment on Parental (Ba/F3), more than 5000 nM.
For the molecule `Cc1cc(F)c(C(=O)Nc2cc(CN3CCC(N(C)C)C3)cc(C(F)(F)F)c2)cc1C#Cc1cnc2c(Nc3cnn(C)c3)cccn12` (stereo not drawn) [Example 68, N-(3-((3-(dimethylamino)pyrrolidin-1-yl)methyl)-5-(trifluoromethyl)phenyl)-2-fluoro-4-methyl-5-((8-((1-methyl-1H-pyrazol-4-yl)amino)imidazo[1,2-a]pyridin-3-yl)ethynyl)benzamide], the GI50 in the experiment on TCCS cells was less than 10 nM; in the experiment on KOPM28 cells, less than 10 nM; in the experiment on T315I-TCCS cells, 100 nM; in the experiment with T315I-KOPM28 cells, 100 nM; in the experiment on T315I-Bcr-Abl (Ba/F3), less than 50 nM; with Parental (Ba/F3), 500 to 5000 nM.
For the molecule `Cc1cc(F)c(C(=O)Nc2cc(CN3CCN(C)CC3)cc(C(F)(F)F)c2)cc1C#Cc1cnc2c(Nc3cn[nH]c3)cccn12` [Example 104, 5-((8-((1H-pyrazol-4-yl)amino)imidazo[1,2-a]pyridin-3-yl)ethynyl)-2-fluoro-4-methyl-N-(3-((4-methylpiperazin-1-yl)methyl)-5-(trifluoromethyl)phenyl)benzamide], the GI50 in the experiment on TCCS cells was less than 10 nM; in the experiment on KOPM28 cells it was less than 10 nM; with T315I-TCCS cells, 100 nM; in the experiment with T315I-KOPM28 cells, more than 100 nM; in the experiment with T315I-Bcr-Abl (Ba/F3) it was 50 to 500 nM; in the experiment with Parental (Ba/F3) it was 500 to 5000 nM.
Regarding `Cc1cc(F)c(C(=O)Nc2ccc(Cn3ccnc3)c(C(C)(C)C#N)c2)cc1C#Cc1cnc2c(Nc3cnn(C)c3)cccn12` [Example 46, N-(4-((1H-imidazol-1-yl)methyl)-3-(2-cyanopropan-2-yl)phenyl)-2-fluoro-4-methyl-5-((8-((1-methyl-1H-pyrazol-4-yl)amino)imidazo[1,2-a]pyridin-3-yl)ethynyl)benzamide], the GI50 with TCCS cells is less than 10 nM; with KOPM28 cells, less than 10 nM; with T315I-TCCS cells, more than 100 nM; with T315I-KOPM28 cells, more than 100 nM; with T315I-Bcr-Abl (Ba/F3), 50 to 500 nM; in the experiment with Parental (Ba/F3), more than 5000 nM.

These data come from patent publication US12673945B2, “3-((8-((1H-pyrazol-4-yl)amino)imidazo[1,2-a]pyridin-3-yl)ethinyl)-n-phenylbenzamide derivative, method for preparing same, and pharmaceutical composition containing same as active ingredient for prevention or treatment of cancer” (DAEGU-GYEONGBUK MEDICAL INNOVATION FOUNDATION, priority 2020, dated 2026).
